Measurements from patent US12344610B2, “APOL1 inhibitors and methods of use” (Maze Therapeutics, Inc., priority 2022, dated 2025).

Target: T1, APOL1 G2 (Homo sapiens, UniProt O14791, DEL388-389)
T1 construct: expressed in transfected cells; host or cells: HEK293 T-REx clonal line stably expressing GCaMP6f (HEK T-REx/GCaMP6f/APOL1 G2 K6.3), doxycycline induced
T1 sequence (O14791 with tags, fused parts or gaps DEL388-389): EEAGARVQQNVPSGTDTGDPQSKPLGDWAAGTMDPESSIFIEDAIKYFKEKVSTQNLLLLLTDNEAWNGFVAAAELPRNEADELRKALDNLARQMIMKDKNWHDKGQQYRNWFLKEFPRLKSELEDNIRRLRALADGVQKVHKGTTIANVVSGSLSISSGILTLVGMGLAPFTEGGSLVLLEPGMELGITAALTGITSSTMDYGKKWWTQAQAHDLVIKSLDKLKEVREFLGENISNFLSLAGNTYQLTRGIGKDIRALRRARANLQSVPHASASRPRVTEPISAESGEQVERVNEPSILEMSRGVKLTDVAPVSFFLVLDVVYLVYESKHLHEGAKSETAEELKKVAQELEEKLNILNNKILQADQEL
Assay: APOL1-mediated calcium transport (calcium influx) assay, HEK T-REx/GCaMP6f/APOL1 G2 K6.3 cells, FLIPR TETRA
Type: cell-based
Settings: prevention of calcium influx; geometric mean of at least 2 assay runs; † = average of a technical replicate from a single assay run
Procedure, shortened: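 A HEK293 T-REx clone stably expressing GCaMP6f had APOL1 G2 induced with doxycycline (20 ng/mL solution added) for 6 h. Cells were then washed into Ca2+-free Tyrode's buffer (pH 7.4) and preincubated with compounds (duplicate 8-point) for 10 min at room temperature. Ca2+ injection to 5 mM final produced FLIPR GCaMP fluorescence, giving AC50 for influx inhibition (geometric mean, ≥2 runs).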

| Structure (SMILES) | AC50 |
| --- | --- |
| O=C1CCc2cc(OCCN3CCC4(CC3)C(=O)Nc3ccc(Cl)cc34)ccc2N1 [Compound 82, 5-chloro-1′-{2-[(2-oxo-1,2,3,4-tetrahydroquinolin-6-yl)oxy]ethyl}-1,2-dihydrospiro[indole-3,4′-piperidin]-2-one] | 1.05 µM |
| CS(=O)(=O)C1(c2c(F)cc(OCCN3CCC4(CC3)C(=O)Nc3ccc(C#N)cc34)cc2F)COC1 [Compound 84, 1′-{2-[3,5-difluoro-4-(3-methanesulfonyloxetan-3-yl)phenoxy]ethyl}-2-oxo-1,2-dihydrospiro[indole-3,4′-piperidine]-5-carbonitrile] | 1.45 µM |
| O=C1Nc2ccc(Cl)cc2C12CCN(CCOc1ccc3c(cnn3[C@H]3C[C@@H](O)C3)c1)CC2 [Compound 85, 5-chloro-1′-[2-({1-[(cis)-3-hydroxycyclobutyl]-1H-indazol-5-yl}oxy)ethyl]-1,2-dihydrospiro[indole-3,4′-piperidin]-2-one] | 0.564 µM |
| O=C1Nc2ccc(Cl)cc2C12CCN(CCOc1ccc3c(cnn3[C@H]3C[C@H](O)C3)c1)CC2 [Compound 86, 5-chloro-1′-[2-({1-[(trans)-3-hydroxycyclobutyl]-1H-indazol-5-yl}oxy)ethyl]-1,2-dihydrospiro[indole-3,4′-piperidin]-2-one] | 0.539 µM |
| O=C1Nc2ccc(Cl)cc2C12CCN(CCOc1ccc3[nH]ncc3c1)CC2 [Compound 87, 5-chloro-1′-[2-(2H-indazol-5-yloxy)ethyl]-1,2-dihydrospiro[indole-3,4′-piperidin]-2-one] | 0.375 µM |
| Cn1c(=O)[nH]c2cc(OCCN3CCC4(CC3)C(=O)Nc3ccc(Cl)cc34)ccc21 [Compound 88, 5-chloro-1′-{2-[(1-methyl-2-oxo-2,3-dihydro-1H-1,3-benzodiazol-5-yl)oxy]ethyl}-1,2-dihydrospiro[indole-3,4′-piperidin]-2-one] | 0.698 µM |
| CS(=O)(=O)c1c(F)cc(OCCN2CCC3(CC2)C(=O)Nc2ccc(Cl)cc23)cc1F [Compound 89, 5-chloro-1′-[2-(3,5-difluoro-4-methanesulfonylphenoxy)ethyl]-1,2-dihydrospiro[indole-3,4′-piperidin]-2-one] | 0.463 µM |
| CS(=O)(=O)c1c(F)cc(OCCN2CCC3(CC2)C(=O)Nc2ccc(C#N)cc23)cc1F [Compound 90, 1′-[2-(3,5-difluoro-4-methanesulfonylphenoxy)ethyl]-2-oxo-1,2-dihydrospiro[indole-3,4′-piperidine]-5-carbonitrile] | 0.973 µM |
| COC(=O)C1(S(=O)(=O)c2ccc(OCCN3CCC4(CC3)C(=O)Nc3ccc(Cl)cc34)cc2)CC1 [Compound 91, methyl 1-[4-(2-{5-chloro-2-oxo-1,2-dihydrospiro[indole-3,4′-piperidin]-1′-yl}ethoxy)benzenesulfonyl]cyclopropane-1-carboxylate] | 0.739 µM |
| CC1(S(=O)(=O)c2ccc(OCCN3CCC4(CC3)C(=O)Nc3ccc(Cl)cc34)cc2)COC1 [Compound 92, 5-chloro-1′-(2-{4-[(3-methyloxetan-3-yl)sulfonyl]phenoxy}ethyl)-1,2-dihydrospiro[indole-3,4′-piperidin]-2-one] | 0.761 µM |
| CC1(S(=O)(=O)c2ccc(OCCN3CCC4(CC3)C(=O)Nc3ccc(C#N)cc34)cc2)COC1 [Compound 93, 1′-(2-{4-[(3-methyloxetan-3-yl)sulfonyl]phenoxy}ethyl)-2-oxo-1,2-dihydrospiro[indole-3,4′-piperidine]-5-carbonitrile] | 0.951 µM |
| CS(=O)(=O)N1CCc2cc(OCCN3CCC4(CC3)C(=O)Nc3ccc(Cl)cc34)ccc2C1 [Compound 94, 5-chloro-1′-{2-[(2-methanesulfonyl-1,2,3,4-tetrahydroisoquinolin-6-yl)oxy]ethyl}-1,2-dihydrospiro[indole-3,4′-piperidin]-2-one] | 0.794 µM |
| CN1C(=O)CCc2cc(OCCN3CCC4(CC3)C(=O)Nc3ccc(C#N)cc34)ccc21 [Compound 95, 1′-{2-[(1-methyl-2-oxo-1,2,3,4-tetrahydroquinolin-6-yl)oxy]ethyl}-2-oxo-1,2-dihydrospiro[indole-3,4′-piperidine]-5-carbonitrile] | 0.655 µM |
| CC(C)N1C(=O)CCc2cc(OCCN3CCC4(CC3)C(=O)Nc3ccc(C#N)cc34)ccc21 [Compound 96, 2-oxo-1′-(2-{[2-oxo-1-(propan-2-yl)-1,2,3,4-tetrahydroquinolin-6-yl]oxy}ethyl)-1,2-dihydrospiro[indole-3,4′-piperidine]-5-carbonitrile] | 0.552 µM |
| CC(C)N1C(=O)CCc2cc(OCCN3CCC4(CC3)C(=O)Nc3ccc(Cl)cc34)ccc21 [Compound 97, 5-chloro-1′-(2-{[2-oxo-1-(propan-2-yl)-1,2,3,4-tetrahydroquinolin-6-yl]oxy}ethyl)-1,2-dihydrospiro[indole-3,4′-piperidin]-2-one] | 0.823 µM |
| CS(=O)(=O)N(CCO)c1ccc(OCCN2CCC3(CC2)C(=O)Nc2ccc(Cl)cc23)cc1 [Compound 98, N-[4-(2-{5-chloro-2-oxo-1,2-dihydrospiro[indole-3,4′-piperidin]-1′-yl}ethoxy)phenyl]-N-(2-hydroxyethyl)methanesulfonamide] | 0.6 µM |
